The values below come from patent publication US11981953B2, “Method to screen compounds for antifungal activity and pharmaceutical compositions and methods to treat fungal diseases by inhibiting spore germination” (WISCONSIN ALUMNI RESEARCH FOUNDATION, priority 2018, dated 2024).

Each structure is given as a SMILES string. ≈ marks a conversion by molar mass, not a printed value. Where a name gives a salt, the structure may show the parent alone. Read-outs that look alike come from different tables or passages of the source.

Format in all cases: cell-based
For assay [1], the system named is Cryptococcus neoformans spore germination. In words: High throughput nanoluciferase screen of spore germination (L1300 Selleck FDA-Approved Drug Library). Particulars: signal relative to negative control. From the text: (§1) To identify inhibitors of Cryptococcus neoformans spore germination, a high throughput screen was developed that utilizes a nanoluciferase construct to monitor whether spores germinate in the presence of inhibitor. Briefly a protein luciferase construct was created resulting in a low luciferase signal for non-germinated spores and a high signal from germinated and replicating cells. The screen was coupled with OD600 readings to monitor the ability of compounds to inhibit yeast replication. The examples focused on FDA-approved drugs, as these drugs have the potential of being repurposed into antifungal therapeutics. To determine whether any FDA-approved drugs were able to inhibit Cryptococcus neoformans spore germination and yeast replication, the aforementioned high throughput screen was performed on the L1300 Selleck FDA-Approved Drug Library containing an array of 1108 compounds. This library of compounds is available commercially from Selleck Chemicals, 14408 W Sylvanfield Drive, Houston, Tex. 77014, USA.
(§2) The screening was successful at identifying known antifungal drugs as inhibitors of yeast replication as indicated by an OD600 signal of less than 75% of the negative control (Table 2). For the purpose of these examples, antifungal drugs were defined as any FDA-approved drug used in the treatment of fungal infections. Of these 23 known antifungal drugs, only six (6) were identified as inhibitors of spore germination, indicated by a luciferase signal of less than 30% of the negative control.

For assay [2], the system named is Cryptococcus neoformans yeast replication. Particulars: signal relative to negative control.
Excerpt: as §1, §2

The subject of assay [3] is Cryptococcus neoformans (JEC21). In words: MIC/MFC experiments (EUCAST based), JEC21. Particulars: 48 h; for MFC: Cryptococcus neoformans. The procedure:
(§3) All minimum inhibitory concentration (MIC) experiments were based on EUCAST methodology. […] After 6-hour incubation, yeast cells were washed in 1×PBS and quantified using a hemocytometer. […] Cryptococcus neoformans cells were incubated for 2 days at 30° C. while Candida albicans strains were incubated for 2 days at 35° C. OD600 readings were used to assess the MIC values for each drug. To determine minimum fungicidal concentrations (MFC) values, 3 μL per well were plated on YPD and allowed to grow for 2 days.

Assay [4] concerns Cryptococcus neoformans (H99). In words: MIC/MFC experiments (EUCAST based), H99. Particulars: 48 h; for MFC: Cryptococcus neoformans. On the procedure: as §3
The test system of assay [5] is Candida albicans (SC5314). Nature of the assay: MIC/MFC experiments (EUCAST based), Candida albicans. Particulars: SC5314, 48 h. On the procedure: as §3
The subject of assay [6] is Aspergillus Fumigatus (AF293). Nature of the assay: Aspergillus fumigatus MIC on conidia. Particulars: for MIC: Aspergillus fumigatus; for Ability to inhibit Aspergillus fumigatus: testing performed on conidia. On the procedure:
Conidia at a final concentration of 2×10^4 cells were incubated in RPMI, 0.33 M MOPS, and 2% glucose at pH 7 at varying concentrations of inhibitors, with a final volume of 200 μL.

The subject of assay [7] is Cryptococcus neoformans spores (JEC20 x JEC21). Nature of the assay: Quantitative germination assay (microfluidic devices, cell size and shape). Particulars: for Inhibition of spore germination: 16 hours; for Germicidal: plated on YPD after the 16-hour experiment; for Inhibition of spore germination, antifungal drugs: concentration not given, bifonazole and econazole nitrate tested outside the microfluidic device, imaged at 0 and 16 hours; for Spore escape from inhibition (words): yeast population increase = escape. The procedure:
All germination assays are based on Barkal et al., 2016. Briefly, microfluidic devices were loaded with 1×10^5 spores, and at 0 hours, SD media with drug of interest, were added to the sample. Spores were allowed to germinated at 30° C. in a humidified chamber and cells were monitored every two (2) hours for 16 hours. Each assay was performed in two (2) individual wells with three (3) field of views acquired from each well. All images were analyzed as previously described based on cell shape and size. Population ratio of spores, intermediate, and yeast cells were determined. Error bars in plots are based on variation between all fields of view acquired. […] After the 16-hour experiment, samples were plated on YPD and allowed to grow at 30° C. to determine if drugs were completely germicidal or not based on lack of growth. If assays were unable to be performed in microfluidic devices, the […] spores were incubated in identical conditions outside of PDMS devices and only loaded into devices for image acquisition.

Setting [8] is: Table 3, other FDA-approved drugs.
The mark [9] stands for this setting: Table 5, yeast, 2 days at 30° C., OD600, read-out: MIC.
[10] abbreviates: Table 5, plated on YPD, 2 days, read-out: MFC.
Setting [11] is: Table 5, 2 days at 35° C., OD600, read-out: MIC.
[12] abbreviates: Table 5, conidia, lowest concentration with complete absence of germ tubes or hyphae, read-out: MIC.
[13] abbreviates: Table 2, antifungal drugs, less than 30% = inhibitor of germination.
Where [14] appears, read: Table 2, antifungal drugs, less than 75% = inhibitor of yeast replication.
Setting [15] is: Table 4, yeast, 2 days at 30° C., OD600, read-out: MIC.
Where [16] appears, read: Table 4, plated on YPD, 2 days, read-out: MFC.
[17] abbreviates: Table 4, 2 days at 35° C., OD600, read-out: MIC.
Setting [18] is: Table 4, conidia, lowest concentration with complete absence of germ tubes or hyphae, read-out: MIC.

Take `CCCCC(CC)CNC(=N)NC(=N)NCCCCCCNC(=N)NC(=N)NCC(CC)CCCC` (stereo not shown) [Alexidine HCl]: in assay [1] (setting [8]), the “Germination Percent Luciferase Signal” value is 4.6%. Besides, in assay [2] (setting [8]), the “Replication Percent OD600” value turned out to be 29.6%. Besides, the MIC in assay [3] (setting [9]), in assay [4] (setting [9]), in assay [5] (setting [11]) and in assay [6] (setting [12]) was under 0.78 µg/mL throughout. Besides, the MFC in assay [3] (setting [10]), in assay [4] (setting [10]) and in assay [5] (setting [10]) was under 0.78 µg/mL each time. In addition, the “Ability to inhibit Aspergillus fumigatus” value in assay [6] is on record as “extremely potent”. Further, the “Inhibition of spore germination” value in assay [7] (25 μg/mL) is “completely inhibit spore germination”. Further, the “Germicidal” value in assay [7] (25 μg/mL) is on record as “fully germicidal”.
In the case of `c1ccc(-c2ccc(C(c3ccccc3)n3ccnc3)cc2)cc1` (stereo not shown) [Bifonazole], the “Germination Percent Luciferase Signal” value in assay [1] (setting [13]) is 13.6%. Besides, the “Replication Percent OD600” value in assay [2] (setting [14]) is recorded as 33.4%. For the same compound, the MIC was 6.25 µg/mL (≈ 20.1 µM) in assay [3] (setting [15]), 6.25 µg/mL (≈ 20.1 µM) in assay [4] (setting [15]), over 100 µg/mL in assay [5] (setting [17]) and over 100 µg/mL in assay [6] (setting [18]). The MFC is 6.25 µg/mL (≈ 20.1 µM) in assay [3] (setting [16]), over 100 µg/mL in assay [4] (setting [16]) and over 100 µg/mL in assay [5] (setting [16]). Besides, in assay [6], the “Ability to inhibit Aspergillus fumigatus” value is “unable to inhibit”. In addition, in assay [7], the “Inhibition of spore germination, antifungal drugs” value (shortened to “Inhibition … antifungal drugs”) is recorded as “able to inhibit spore germination effectively”. The “Spore escape from inhibition (words)” value in assay [7] is listed as “spore escape apparent”.
As to `CCN(CC)C(=S)SSC(=S)N(CC)CC` [Disulfiram], in assay [1] (setting [8]), the “Germination Percent Luciferase Signal” value was found to be 22.7%. The “Replication Percent OD600” value in assay [2] (setting [8]) was 65.6%. For the same compound, the MIC in assay [3] is 3.13 µg/mL (≈ 10.6 µM); in assay [4] it was 6.25 µg/mL (≈ 21.1 µM); in assay [5], 6.25 µg/mL (≈ 21.1 µM); in assay [6], 25 µg/mL (≈ 84.3 µM). Besides, the results for the MFC in assay [3], in assay [4] and in assay [5] were 3.13 µg/mL (≈ 10.6 µM), 6.25 µg/mL (≈ 21.1 µM) and 12.5 µg/mL (≈ 42.2 µM), respectively. For the same compound, the “Stall in germination overall” value in assay [7] (25 μg/mL) is about 2 h.
Consider `Clc1ccc(COC(Cn2ccnc2)c2ccc(Cl)cc2Cl)cc1` (stereo not shown) [Econazole nitrate], for which the “Germination Percent Luciferase Signal” value in assay [1] (setting [13]) was found to be 16.1%. In assay [2] (setting [14]), the “Replication Percent OD600” value is 33.1%. Besides, the MIC in assay [3] (setting [15]) is under 0.78 µg/mL; in assay [4] (setting [15]), under 0.78 µg/mL; in assay [5] (setting [17]), 6.25 µg/mL; in assay [6] (setting [18]), 3.13 µg/mL. Further, the MFC in assay [3] (setting [16]) stood at 6.25 µg/mL; in assay [4] (setting [16]), 6.25 µg/mL; in assay [5] (setting [16]), 12.5 µg/mL. Moreover, in assay [6], the “Ability to inhibit Aspergillus fumigatus” value is reported as “able to inhibit its growth”. Besides, the “Inhibition … antifungal drugs” value in assay [7] is “able to inhibit spore germination effectively”.
For the compound `O=C(Nc1ccc([N+](=O)[O-])cc1Cl)c1cc(Cl)ccc1O` [Niclosamide], the “Germination Percent Luciferase Signal” value in assay [1] (setting [8]) is 7.8%. Also, the “Replication Percent OD600” value in assay [2] (setting [8]) is reported as 43.4%. Moreover, the MIC was under 0.78 µg/mL in assay [3] (setting [9]), 1.56 µg/mL (≈ 4.77 µM) in assay [4] (setting [9]), over 100 µg/mL in assay [5] (setting [11]) and over 100 µg/mL in assay [6] (setting [12]). Also, the MFC in assay [3] (setting [10]) was 1.56 µg/mL (≈ 4.77 µM); in assay [4] (setting [10]), over 100 µg/mL; in assay [5] (setting [10]) it was over 100 µg/mL. In addition, in assay [7] (25 μg/mL), the “Inhibition of spore germination” value is “completely inhibit germination”. Besides, in assay [7] (25 μg/mL), the “Germicidal” value was “not fully germicidal”.
For the compound `CCCCCCCCOc1ccccc1C(=O)Nc1ccc(C(=O)OCC[N+](C)(CC)CC)cc1` [Otilonium bromide], in assay [1] (setting [8]), the “Germination Percent Luciferase Signal” value was 6.9%. Further, the “Replication Percent OD600” value in assay [2] (setting [8]) came to 29.0%. For the same compound, the MIC amounted to 3.13 µg/mL in assay [3] (setting [9]), 3.13 µg/mL in assay [4] (setting [9]), 3.13 µg/mL in assay [5] (setting [11]) and 6.25 µg/mL in assay [6] (setting [12]). Besides, the MFC in assay [3] (setting [10]), in assay [4] (setting [10]) and in assay [5] (setting [10]) was 3.13 µg/mL in each case. Besides, in assay [6], the “Ability to inhibit Aspergillus fumigatus” value is “able to inhibit A. fumigatus”. Moreover, the “Inhibition of spore germination” value in assay [7] (25 μg/mL) is “completely inhibit spore germination”. For the same compound, the “Germicidal” value in assay [7] (25 μg/mL) is listed as “fully germicidal”.
`N=C(N)c1ccc(OCCCCCOc2ccc(C(=N)N)cc2)cc1` [Pentamidine isethionate]: the MIC in assay [3] (setting [15]) was 1.56 µg/mL; in assay [4] (setting [15]), 6.25 µg/mL; in assay [5] (setting [17]), 50 µg/mL; in assay [6] (setting [18]), over 100 µg/mL. Besides, the MFC amounted to 3.13 µg/mL in assay [3] (setting [16]), 6.25 µg/mL in assay [4] (setting [16]) and 50 µg/mL in assay [5] (setting [16]). For the same compound, in assay [7], the “Inhibition … antifungal drugs” value is recorded as “able to successfully inhibit spore germination”. Besides, the “Spore escape from inhibition (words)” value in assay [7] was “none of the ˜10,000 spores showed inherent resistance and escape from inhibition”.
`CO[C@H]1C[C@@H]2CC[C@@H](C)[C@@](O)(O2)C(=O)C(=O)N2CCCC[C@H]2C(=O)O[C@H]([C@H](C)C[C@@H]2CC[C@@H](OC(=O)C(C)(CO)CO)[C@H](OC)C2)CC(=O)[C@H](C)/C=C(\C)[C@@H](O)[C@@H](OC)C(=O)[C@H](C)C[C@H](C)/C=C/C=C/C=C/1C` [Temsirolimus]: the “Germination Percent Luciferase Signal” value in assay [1] (setting [8]) stood at 21.3%. The “Replication Percent OD600” value in assay [2] (setting [8]) turned out to be 59.2%. Further, the MIC in assay [3] (setting [9]) is 6.25 µg/mL (≈ 6.07 µM); in assay [4] (setting [9]), 6.25 µg/mL (≈ 6.07 µM); in assay [5] (setting [11]), 1.56 µg/mL (≈ 1.51 µM); in assay [6] (setting [12]) it was over 100 µg/mL. Besides, the figures for the MFC in assay [3] (setting [10]), in assay [4] (setting [10]) and in assay [5] (setting [10]) were 6.25 µg/mL (≈ 6.07 µM), 6.25 µg/mL (≈ 6.07 µM) and 1.56 µg/mL (≈ 1.51 µM), respectively. Besides, the “Inhibition of spore germination” value in assay [7] (25 μg/mL) was “partially inhibit germination”. Also, in assay [7] (25 μg/mL), the “Germicidal” value is on record as “Neither temsirolimus nor disulfiram were germicidal”.
